Results on 28 compounds are retold here after patent US8471005B2 (Cephalon, Inc., priority 2008, dated 2013).

One test concerns the target T1, ALK (Homo sapiens, UniProt Q9UM73).
T1 construct: host or cells: baculovirus expression system
Kind of test: ALK Kinase Assay (ELISA/TRF, PLC-γ substrate). It counts as biochemical. The settings on record: ALK kinase inhibition, 1 μM ATP; read-out: ALK Potency. In outline: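 Wells were coated with 10 μg/mL phospholipase C-γ substrate in TBS, and the reaction was started by adding 30 ng/ml ALK enzyme and run at 37° C for 15 minutes. Phosphorylated product was detected with Eu-N1-labeled PT66 antibody, and IC50 values came from sigmoidal variable-slope fits of percent inhibition against log concentration.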
In general terms: In an ELISA, binding on a coated surface is turned into a signal by an enzyme label.

The next test addresses T2, JAK2 (Homo sapiens, UniProt O60674).
T2 construct: host or cells: baculovirus expression system
Kind of test: Recombinant Human JAK2 Kinase Assay (TRF). In kind it is biochemical. The settings on record: JAK2 kinase inhibition, 0.2 μM ATP; read-out: JAK2 Potency. In outline: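 Baculovirus-expressed JAK2 (15 ng/ml) phosphorylated a biotinylated 15-mer peptide captured on Neutravidin, in 20 mM HEPES pH 7.2, 0.2 μM ATP, 1 mM MnCl2, 0.1% BSA, 2.5% DMSO final, 20 min at room temperature. Phosphoproduct detected by time-resolved fluorescence with Eu-N1-labelled PY100 antibody.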

The structures appear in SMILES notation.

T2 sequence (O60674 whole entry): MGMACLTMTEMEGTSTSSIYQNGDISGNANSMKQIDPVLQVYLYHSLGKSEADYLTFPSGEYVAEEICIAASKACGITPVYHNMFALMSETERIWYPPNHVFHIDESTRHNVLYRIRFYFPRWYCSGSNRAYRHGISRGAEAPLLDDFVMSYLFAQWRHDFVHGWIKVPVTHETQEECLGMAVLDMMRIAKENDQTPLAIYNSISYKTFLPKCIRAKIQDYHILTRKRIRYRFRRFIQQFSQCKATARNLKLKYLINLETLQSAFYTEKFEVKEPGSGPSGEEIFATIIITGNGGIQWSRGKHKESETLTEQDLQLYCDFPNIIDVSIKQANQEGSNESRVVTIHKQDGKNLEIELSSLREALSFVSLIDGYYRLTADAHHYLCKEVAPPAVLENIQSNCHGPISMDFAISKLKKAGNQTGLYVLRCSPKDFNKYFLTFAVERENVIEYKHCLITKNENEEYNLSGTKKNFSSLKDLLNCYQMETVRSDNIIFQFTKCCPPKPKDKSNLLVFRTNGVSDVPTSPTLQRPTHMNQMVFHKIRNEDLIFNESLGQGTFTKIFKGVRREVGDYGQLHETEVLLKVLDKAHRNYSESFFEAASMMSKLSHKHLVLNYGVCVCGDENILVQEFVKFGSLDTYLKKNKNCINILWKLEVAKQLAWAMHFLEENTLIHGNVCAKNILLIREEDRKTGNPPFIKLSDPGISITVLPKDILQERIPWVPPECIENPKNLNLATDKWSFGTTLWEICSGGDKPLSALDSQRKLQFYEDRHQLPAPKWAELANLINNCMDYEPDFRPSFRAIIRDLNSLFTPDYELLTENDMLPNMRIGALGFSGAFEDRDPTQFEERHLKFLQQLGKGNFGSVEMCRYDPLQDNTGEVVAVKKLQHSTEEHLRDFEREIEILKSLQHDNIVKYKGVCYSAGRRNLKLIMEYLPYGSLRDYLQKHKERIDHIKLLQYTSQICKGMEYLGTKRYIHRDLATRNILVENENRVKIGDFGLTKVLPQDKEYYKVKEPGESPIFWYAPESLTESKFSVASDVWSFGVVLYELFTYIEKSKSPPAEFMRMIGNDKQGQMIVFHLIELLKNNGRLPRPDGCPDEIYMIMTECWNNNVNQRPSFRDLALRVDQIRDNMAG
T1 sequence (Q9UM73 19-1620): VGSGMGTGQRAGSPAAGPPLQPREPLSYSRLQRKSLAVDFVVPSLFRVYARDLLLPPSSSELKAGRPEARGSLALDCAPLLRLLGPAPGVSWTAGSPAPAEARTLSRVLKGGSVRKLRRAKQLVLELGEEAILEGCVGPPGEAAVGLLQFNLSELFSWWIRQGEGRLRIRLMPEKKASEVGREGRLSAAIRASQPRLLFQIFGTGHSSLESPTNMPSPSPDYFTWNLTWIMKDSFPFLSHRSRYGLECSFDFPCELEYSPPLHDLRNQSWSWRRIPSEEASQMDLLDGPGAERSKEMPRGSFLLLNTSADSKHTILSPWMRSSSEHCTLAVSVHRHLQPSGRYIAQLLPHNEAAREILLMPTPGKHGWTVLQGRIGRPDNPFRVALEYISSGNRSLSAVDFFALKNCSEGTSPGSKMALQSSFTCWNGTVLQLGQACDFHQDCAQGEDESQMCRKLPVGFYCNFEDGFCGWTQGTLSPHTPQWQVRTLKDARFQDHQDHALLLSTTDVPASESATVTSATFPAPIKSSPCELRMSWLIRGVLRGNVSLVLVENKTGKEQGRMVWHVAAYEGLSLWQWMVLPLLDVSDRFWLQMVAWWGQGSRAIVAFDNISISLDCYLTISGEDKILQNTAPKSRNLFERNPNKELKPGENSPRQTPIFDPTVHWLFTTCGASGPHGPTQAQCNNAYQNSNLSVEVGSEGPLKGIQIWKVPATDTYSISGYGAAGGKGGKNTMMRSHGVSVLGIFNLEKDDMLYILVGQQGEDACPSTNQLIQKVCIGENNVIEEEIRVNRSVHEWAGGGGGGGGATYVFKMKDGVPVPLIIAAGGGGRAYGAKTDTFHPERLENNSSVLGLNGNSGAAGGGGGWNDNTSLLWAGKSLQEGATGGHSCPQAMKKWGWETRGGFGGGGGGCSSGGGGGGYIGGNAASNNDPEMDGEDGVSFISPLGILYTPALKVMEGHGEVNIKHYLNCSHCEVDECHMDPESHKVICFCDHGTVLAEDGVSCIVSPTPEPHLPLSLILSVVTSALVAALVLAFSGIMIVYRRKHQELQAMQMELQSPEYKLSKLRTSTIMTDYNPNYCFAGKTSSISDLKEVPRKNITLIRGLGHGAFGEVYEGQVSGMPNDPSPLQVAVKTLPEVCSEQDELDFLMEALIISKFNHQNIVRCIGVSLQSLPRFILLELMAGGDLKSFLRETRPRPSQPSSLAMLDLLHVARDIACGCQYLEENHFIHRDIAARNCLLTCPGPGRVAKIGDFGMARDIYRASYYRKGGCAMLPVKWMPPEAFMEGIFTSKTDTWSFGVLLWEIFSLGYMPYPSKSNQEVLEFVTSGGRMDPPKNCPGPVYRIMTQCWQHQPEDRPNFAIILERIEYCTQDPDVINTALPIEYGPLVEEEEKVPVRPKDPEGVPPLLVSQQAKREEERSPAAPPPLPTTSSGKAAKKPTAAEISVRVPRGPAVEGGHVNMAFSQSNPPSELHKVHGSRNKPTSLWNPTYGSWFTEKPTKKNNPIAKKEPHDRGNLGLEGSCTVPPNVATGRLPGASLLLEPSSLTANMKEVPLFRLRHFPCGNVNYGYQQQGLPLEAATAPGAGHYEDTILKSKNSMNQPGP

Consider `CC(C)(C)NS(=O)(=O)c1cccc(-c2ccc3cnc(Nc4ccc5[nH]c(=O)[nH]c5c4)nn23)c1` [Example 1298, N-tert-Butyl-3-[2-(2-oxo-2,3-dihydro-1H-benzimidazol-5-ylamino)-pyrrolo[2,1-f][1,2,4]triazin-7-yl]-benzenesulfonamide], for which the values for the IC50 at ALK and on JAK2 were 100 to 1000 nM and < 100 nM, respectively.
For `CC(C)(C)NS(=O)(=O)c1cccc(-c2ccc3cnc(Nc4ccc5nc[nH]c5c4)nn23)c1` [Example 1299, 3-[2-(3H-Benzimidazol-5-ylamino)-pyrrolo[2,1-f][1,2,4]triazin-7-yl]-N-tert-butyl-benzenesulfonamide], in that order: 100 to 1000 nM and < 100 nM.
For `Cn1cnc2ccc(Nc3ncc4ccc(-c5cccc(S(=O)(=O)NC(C)(C)C)c5)n4n3)cc21` [Example 1300, N-tert-Butyl-3-[2-(3-methyl-3H-benzimidazol-5-ylamino)-pyrrolo[2,1-f][1,2,4]triazin-7-yl]-benzenesulfonamide], in that order: 100 to 1000 nM and < 100 nM.
For `Cn1cnc2ccc(Nc3ncc4ccc(-c5ccc(S(C)(=O)=O)cc5)n4n3)cc21` [Example 1301, [7-(4-Methanesulfonyl-phenyl)-pyrrolo[2,1-f][1,2,4]triazin-2-yl]-(3-methyl-3H-benzimidazol-5-yl)-amine], in that order: 100 to 1000 nM and < 100 nM.
As for `CS(=O)(=O)c1ccc(-c2ccc3cnc(Nc4ccc5nc(C(F)(F)F)[nH]c5c4)nn23)cc1` [Example 1302, [7-(4-Methanesulfonyl-phenyl)-pyrrolo[2,1-f][1,2,4]triazin-2-yl]-(2-trifluoromethyl-3H-benzimidazol-5-yl)-amine], the results for the IC50 on ALK and on JAK2 were > 10000 nM and < 100 nM, respectively.
The corresponding values for `CS(=O)(=O)c1ccc(-c2ccc3cnc(Nc4ccc5[nH]c(=O)[nH]c5c4)nn23)cc1` [Example 1303, 5-[7-(4-Methanesulfonyl-phenyl)-pyrrolo[2,1-f][1,2,4]triazin-2-ylamino]-1,3-dihydro-benzimidazol-2-one] are 1000 to 10000 nM and < 100 nM.
For `CS(=O)(=O)c1ccc(-c2ccc3cnc(Nc4ccc5nc[nH]c5c4)nn23)cc1` [Example 1304, (3H-Benzimidazol-5-yl)-[7-(4-methanesulfonyl-phenyl)-pyrrolo[2,1-f][1,2,4]triazin-2-yl]-amine], in that order: 100 to 1000 nM and < 100 nM.
For the compound `COc1ccccc1-c1ccc2cnc(Nc3ccc4nc(C(F)(F)F)[nH]c4c3)nn12` [Example 1305], the figures for the IC50 on ALK and at JAK2 were 1000 to 10000 nM and < 100 nM, respectively.
The corresponding values for `COc1ccccc1-c1ccc2cnc(Nc3ccc4nc[nH]c4c3)nn12` [Example 1306, (3H-Benzimidazol-5-yl)-[7-(2-methoxy-phenyl)-pyrrolo[2,1-f][1,2,4]triazin-2-yl]-amine] are 100 to 1000 nM and < 100 nM.
For `COc1ccc(-c2ccc3cnc(Nc4ccc5ncn(C)c5c4)nn23)cn1` [Example 1307, [7-(6-Methoxy-pyridin-3-yl)-pyrrolo[2,1-f][1,2,4]triazin-2-yl]-(3-methyl-3H-benzimidazol-5-yl)-amine], in that order: 1000 to 10000 nM and < 100 nM.
With `COc1ccc(-c2ccc3cnc(Nc4ccc5nc(C(F)(F)F)[nH]c5c4)nn23)cn1` [Example 1308, [7-(6-Methoxy-pyridin-3-yl)-pyrrolo[2,1-f][1,2,4]triazin-2-yl]-(2-trifluoromethyl-3H-benzimidazol-5-yl)-amine], the IC50 on ALK is > 10000 nM; at JAK2, < 100 nM.
For `COc1ccc(-c2ccc3cnc(Nc4ccc5[nH]c(=O)[nH]c5c4)nn23)cn1` [Example 1309, 5-[7-(6-Methoxy-pyridin-3-yl)-pyrrolo[2,1-f][1,2,4]triazin-2-ylamino]-1,3-dihydro-benzimidazol-2-one], in that order: 1000 to 10000 nM and < 100 nM.
The corresponding values for `Cn1cnc2ccc(Nc3ncc4ccc(-c5ccccc5NS(C)(=O)=O)n4n3)cc21` [Example 1310, N-{2-[2-(3-Methyl-3H-benzoimidazol-5-ylamino)-pyrrolo[2,1-f][1,2,4]triazin-7-yl]-phenyl}-methanesulfonamide] are 100 to 1000 nM and < 100 nM.
For `CCS(=O)(=O)c1cccc(-c2ccc3cnc(Nc4ccc5nc[nH]c5c4)nn23)c1` [Example 1311, (3H-Benzimidazol-5-yl)-[7-(3-ethanesulfonyl-phenyl)-pyrrolo[2,1-f][1,2,4]triazin-2-yl]-amine], in that order: 1000 to 10000 nM and < 100 nM.
For `CCS(=O)(=O)c1cccc(-c2ccc3cnc(Nc4ccc5ncn(C)c5c4)nn23)c1` [Example 1312, [7-(3-Ethanesulfonyl-phenyl)-pyrrolo[2,1-f][1,2,4]triazin-2-yl]-(3-methyl-3H-benzimidazol-5-yl)-amine], the IC50 on ALK is 1000 to 10000 nM; at JAK2, < 100 nM.
Regarding `CCS(=O)(=O)c1cccc(-c2ccc3cnc(Nc4ccc5nc(C(F)(F)F)[nH]c5c4)nn23)c1` [Example 1313, [7-(3-Ethanesulfonyl-phenyl)-pyrrolo[2,1-f][1,2,4]triazin-2-yl]-(2-trifluoromethyl-3H-benzimidazol-5-yl)-amine], the IC50 on ALK was > 10000 nM; at JAK2, < 100 nM.
For `O=S(=O)(CC1CC1)c1cccc(-c2ccc3cnc(Nc4ccc5[nH]ncc5c4)nn23)c1` [Example 1314], in that order: 1000 to 10000 nM and < 100 nM.
For the compound `CC(C)(C)NS(=O)(=O)c1cccc(-c2ccc3cnc(Nc4ccc5[nH]ncc5c4)nn23)c1` [Example 1315, N-tert-Butyl-3-[2-(1H-indazol-5-ylamino)-pyrrolo[2,1-f][1,2,4]triazin-7-yl]-benzenesulfonamide], the IC50 on ALK is 1000 to 10000 nM; at JAK2, < 100 nM.
The corresponding values for `Cn1ncc2cc(Nc3ncc4ccc(-c5cccc(S(=O)(=O)NC(C)(C)C)c5)n4n3)ccc21` [Example 1316, N-tert-Butyl-3-[2-(1-methyl-1H-indazol-5-ylamino)-pyrrolo[2,1-f][1,2,4]triazin-7-yl]-benzenesulfonamide] are 100 to 1000 nM and < 100 nM.
The corresponding values for `Cn1ncc2ccc(Nc3ncc4ccc(-c5cccc(S(=O)(=O)NC(C)(C)C)c5)n4n3)cc21` [Example 1317, N-tert-Butyl-3-[2-(1-methyl-1H-indazol-6-ylamino)-pyrrolo[2,1-f][1,2,4]triazin-7-yl]-benzenesulfonamide] are 1000 to 10000 nM and < 100 nM.
For `O=S(=O)(CC1CC1)c1cccc(-c2ccc3cnc(Nc4ccc5nc(C(F)(F)F)[nH]c5c4)nn23)c1` [Example 1318, [7-(3-Cyclopropylmethanesulfonyl-phenyl)-pyrrolo[2,1-f][1,2,4]triazin-2-yl]-(2-trifluoromethyl-3H-benzimidazol-5-yl)-amine], in that order: > 10000 nM and < 100 nM.
Regarding `O=S(=O)(CC1CC1)c1cccc(-c2ccc3cnc(Nc4ccc5nc[nH]c5c4)nn23)c1` [Example 1319, (3H-Benzimidazol-5-yl)-[7-(3-cyclopropylmethanesulfonyl-phenyl)-pyrrolo[2,1-f][1,2,4]triazin-2-yl]-amine], the IC50 on ALK is 1000 to 10000 nM; on JAK2 it was < 100 nM.
The corresponding values for `Cn1cnc2ccc(Nc3ncc4ccc(-c5cccc(S(=O)(=O)CC6CC6)c5)n4n3)cc21` [Example 1320, [7-(3-Cyclopropylmethanesulfonyl-phenyl)-pyrrolo[2,1-f][1,2,4]triazin-2-yl]-(3-methyl-3H-benzimidazol-5-yl)-amine] are 100 to 1000 nM and < 100 nM.
The corresponding values for `Cn1ncc2ccc(Nc3ncc4ccc(-c5cccc(S(=O)(=O)CC6CC6)c5)n4n3)cc21` [Example 1321, [7-(3-Cyclopropylmethanesulfonyl-phenyl)-pyrrolo[2,1-f][1,2,4]triazin-2-yl]-(1-methyl-1H-indazol-6-yl)-amine] are 1000 to 10000 nM and < 100 nM.
The corresponding values for `Cn1ncc2cc(Nc3ncc4ccc(-c5cccc(S(=O)(=O)CC6CC6)c5)n4n3)ccc21` [Example 1322, [7-(3-Cyclopropylmethanesulfonyl-phenyl)-pyrrolo[2,1-f][1,2,4]triazin-2-yl]-(1-methyl-1H-indazol-5-yl)-amine] are 1000 to 10000 nM and < 100 nM.
For `CC(C)(C)NS(=O)(=O)c1cccc(-c2ccc3cnc(Nc4ccc5c(cnn5CCN5CCOCC5)c4)nn23)c1` [Example 1323, N-tert-Butyl-3-{2-[1-(2-morpholin-4-yl-ethyl)-1H-indazol-5-ylamino]-pyrrolo[2,1-f][1,2,4]triazin-7-yl}-benzenesulfonamide], the IC50 is 100 to 1000 nM at ALK and < 100 nM at JAK2.
`CC(C)(C)NS(=O)(=O)c1cccc(-c2ccc3cnc(Nc4ccc5cnn(CCN6CCOCC6)c5c4)nn23)c1` [Example 1324, N-tert-Butyl-3-{2-[1-(2-morpholin-4-yl-ethyl)-1H-indazol-6-ylamino]-pyrrolo[2,1-f][1,2,4]triazin-7-yl}-benzenesulfonamide]: the IC50 is 1000 to 10000 nM at ALK and < 100 nM at JAK2.
Consider `CC(C)(C)NS(=O)(=O)c1cccc(-c2ccc3cnc(Nc4ccc5c(c4)ncn5CCN4CCOCC4)nn23)c1` [Example 1325, N-tert-Butyl-3-{2-[1-(2-morpholin-4-yl-ethyl)-1H-benzimidazol-5-ylamino]-pyrrolo[2,1-f][1,2,4]triazin-7-yl}-benzenesulfonamide], for which the IC50 at ALK is 100 to 1000 nM; at JAK2, < 100 nM.
